{"source": "patent US20230398163A1", "about": "“FRUIT EXTRACTS FOR USE IN THE TREATMENT OF NEURODEGENERATIVE DISEASES” (NEUROSCIENCE PHARMA SPA, priority 2020, published 2023)", "system": "PC12 cells", "test": "MTT cell viability assay, extract alone", "type": "cell-based", "conditions": "addition of FCCP", "experimental": "Cellular health was quantified using a 3-(4,5-dimethylthizol-2-yl)-2,5-diphenyltetrazolium bromide (MTT) assay, which indicates cell viability. Cultured PC12 cells were incubated in MTT (1 mg/ml) in 1X DPBS (Dulbecco's phosphate-buffered saline) for 30 minutes, in the presence (or absence) of maqui berry extract provided a concentrations ranging from 0.000081 mg/l to 81 mg/l. Precipitated MTT was dissolved using isopropanol for 15 minutes prior to being added to the culture medium. The cell absorbance was measured in a microplate reader (Novostar, BGM, Germany) at two wavelengths: 560 nm and 620 nm. The difference in cellular absorbance was quantified between the two wavelengths using NovoStar software across experimental conditions.", "data": [{"molecule": "N#CC(C#N)=NNc1ccc(OC(F)(F)F)cc1", "note": "[FCCP, Carbonyl cyanide 4-(trifluoromethoxy)phenylhydrazone]", "values": [{"measurement": "cell viability percent relative to control (MTT)", "result": "significant decrease in cell viability percent relative to control levels"}]}]}
